US6713638B2, “2-amino-3-aroyl-4,5 alkylthiophenes: agonist allosteric enhancers at human A1 adenosine receptors” (priority 2001, dated 2004)

Assays:
hA1AR = target: T1, hA1AR (Homo sapiens, UniProt P30542); test: Assay of AE (allosteric enhancer) activity: slowing of 125I-ABA dissociation from the A1AR-G protein ternary complex; assay type: binding; conditions: CHO-K1 membranes; for AE Score, %: 0.1 mM final AE, specifically bound 125I-ABA remaining after 10 minutes of dissociation, Mean ± SEM (N = 3)
T1 construct: expressed in transfected cells; membranes
T1 sequence (P30542 1-326): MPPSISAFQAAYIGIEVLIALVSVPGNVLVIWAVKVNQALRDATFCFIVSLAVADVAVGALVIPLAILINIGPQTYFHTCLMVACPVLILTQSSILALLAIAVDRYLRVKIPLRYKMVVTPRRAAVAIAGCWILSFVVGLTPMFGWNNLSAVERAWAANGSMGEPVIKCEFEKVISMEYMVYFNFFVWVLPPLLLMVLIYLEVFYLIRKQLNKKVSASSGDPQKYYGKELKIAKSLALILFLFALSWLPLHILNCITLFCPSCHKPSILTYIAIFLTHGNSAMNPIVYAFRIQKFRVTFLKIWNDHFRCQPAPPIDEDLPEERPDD
Source text: The allosteric enhancer (AE) activity was studied at the human A1AR (hA1AR) of a panel of compounds consisting of nine 2-amino-3-aroylthiophenes, (3a-i), eight 2-amino-3-benzoyl-4,5-dimethylthiophenes (13a-h), […] 3-aroyl-2-carboxy-4,5-dimethylthiophenes, (17a-e), ten 2-amino-3-benzoyl-5,6-ihydro-4H-cyclopenta[b]thiophenes, (19a-I), fourteen 2-amino-3-benzoyl-4,5,6,7-tetrahyd robenzo-[b]thiophenes, (20a-n), and fifteen 2-amino-3-benzoyl-5,6,7,8-tetrahydro-4H-cyclohepta[b]thiophenes, (21a-o). An in vitro assay employing the A1AR agonist ^125I-N^6-aminobenzyladenosine (^125I-ABA) and membranes from CHO-K1 cells stably expressing the hA1AR measured, as an index of AE activity, the ability of a candidate AE to slow the dissociation of the radioligand from the A1AR-G protein ternary complex.
The assay of AE activity consisted of three phases: formation of the ^125I-ABA-A1AR-G protein ternary complex; binding of the AE to the allosteric site, and dissociation of the complex by adding a combination of an A1AR antagonist (100 μM cyclopentyltheophylline) and 50 µM GTPγS. This procedure detects only AE activity since phase 3 (dissociation) is affected only by the allosteric activity of the test compound and is not affected by competitive antagonist activity. GTPγS is added to accelerate the dissociation process. […] The assay employed membranes from CHO-K1 cells stably expressing the hA1AR. For agonist binding to equilibrium, the incubation mixture consisted of 10 mM HEPES, pH 7.2, containing 0.5 mM MgCl2, 1 U/mL adenosine deaminase, 0.5 nM ^125I-ABA and 10 μg of membrane protein in a final volume of 100 μL. This phase of the assay was allowed to proceed to equilibrium (>90 minutes) at room temperature. At that point phase 2 was initiated by adding 50 μL of a 0.3 mM solution (0.1 mM final) of a candidate AE or DMSO vehicle to rapidly occupy the allosteric site. Stock solutions of AEs (10 mM) were prepared in DMSO. Five minutes later phase 3 was initiated by the addition of 50 μL of a solution containing 400 μM 8-cyclopentyltheophylline and 200 μM GTPγS. Ten minutes later, residual radioligand bound to Aireceptors was trapped on Whatman GF/C glass fiber filters using a Brandel cell harvester, washed 3 times over a 20 second interval and counted in a γ-counter. The percentage of specifically bound agonist remaining after 10 minutes of dissociation was used to calculate the “score” of AE activity:
AE activity score=100×(B−Bo)/(Beq−Bo)
Where B=residual binding (cpm) bound at the end of 10 minutes of dissociation in the presence of an AE, Bo=residual binding (cpm) at the end of 10 minutes of dissociation in the absence of an AE, and Beq=cpm bound at the end of phase 2. A compound with no AE activity has a score of 0 in this assay. An AE which completely arrests agonist dissociation will have a score of 100.

A1AR = target: T2, A1AR (Homo sapiens, UniProt P30542); test: A1AR antagonistic activity: competition with equilibrium binding of [3H]CPX; conditions: 100 μM, N = 3; for inhibition at 100 µM: read-out: Antagonist activity, % (% inhibition of specific equilibrium binding of [3H]8-cyclopentyl-1,3-dipropylxanthine)
T2 sequence (P30542 1-326): T1 sequence (P30542 1-326)
Source text: Several of the candidate AEs had substantial antagonistic activity. However, the AE and antagonist activities are unrelated (r^2=0.057, n=28).

adenosine A1 receptors = conditions: background statement, cited from earlier work

Row | melting point | inhibition at 100 µM (A1AR) | Antagonist activity, % (% inhibition of specific equilibrium binding of [3H]8-cyclopentyl-1,3-dipropylxanthine) (A1AR) | Compound | AE Score, % (hA1AR) | AE activity (in words) (hA1AR; hA1AR) | enhancement at A1 receptors (adenosine A1 receptors) | selectivity for adenosine A1 receptors (adenosine A1 receptors; other adenosine receptor subtypes, other classes of receptors)
1 | 110 °C | – | – | Nc1sc2c(c1C(=O)c1ccc(-c3ccccc3)cc1)CCCC2 [Compound 20l, 2-Amino-3-(4-phenylbenzoyl)-4,5,6,7-tetrahydrobenzo[b]thiophene] | 33 ± 2% | excellent activity | – | –
2 | 202 °C | 76% | – | NC1SC2=CCCC2=C1C(=O)c1cccc(Br)c1 (stereo not drawn) [Compound 19d, 2-Amino-3-(3-bromobenzoyl)-4,5-dihydrocyclopenta[b]thiophene] | 13 ± 3% | – | – | –
3 | 147 °C | 24% | – | Nc1sccc1C(=O)c1ccccc1 [Compound 3a, 2-Amino-3-benzoylthiophene] | 0.2 ± 0.01% | – | – | –
4 | – | – | 0% | Nc1sc2c(c1C(=O)c1ccccc1)CCCCC2 [Compound 21b] | 13 ± 3.8% | – | – | –
5 | – | – | – | Cc1sc(N)c(C(=O)c2cccc(C(F)(F)F)c2)c1C [PD 81,723] | – | – | enhancement at A1 receptors of all species tested to date | no effects on other adenosine receptor subtypes or on other classes of receptors
6 | – | – | 36% | Nc1sc2c(c1C(=O)c1ccc(F)cc1)CCC2 [Compound 19e] | 68 ± 1% | – | – | –
